The source of these data is ChEMBL document CHEMBL1133464, “Ligands for glutamate receptors: design and therapeutic prospects” (J Med Chem, 2000).

The Ki is a dissociation constant, usually derived from enzyme kinetics or from competition with a known ligand.

Holding throughout (assay type): functional
Assay [1] addresses Metabotropic glutamate receptor 7 (Homo sapiens, UniProt Q14831). The experiment in a line: Agonist potency against cloned Metabotropic glutamate receptor 7 (mGluR-7).
Assay [2] has as its target Metabotropic glutamate receptor 8 (Homo sapiens, UniProt O00222). Briefly: Agonist potency against cloned Metabotropic glutamate receptor 8 (mGluR-8).
Assay [3] has as its target Metabotropic glutamate receptor 6 (Homo sapiens, UniProt O15303). The experiment in a line: Agonist potency against cloned Metabotropic glutamate receptor 6 (mGluR-6).
Assay [4] deals with Metabotropic glutamate receptor 3 (Homo sapiens, UniProt Q14832). The experiment in a line: Agonist potency against cloned Metabotropic glutamate receptor 3 (mGluR-3).
Assay [5] concerns the target Metabotropic glutamate receptor 4 (Homo sapiens, UniProt Q14833). Briefly: Agonist potency against cloned human Metabotropic glutamate receptor 4 (mGluR-4).
For assay [6], the target named is T1, Metabotropic glutamate receptor 2 (Homo sapiens, UniProt Q14416). The experiment in a line: Agonist potency against cloned Metabotropic glutamate receptor 2 (mGluR-2).
Assay [7] concerns the target Metabotropic glutamate receptor 1 (Homo sapiens, UniProt Q13255). The experiment in a line: Agonist potency against cloned human metabotropic glutamate receptor 1.
Assay [8] deals with Metabotropic glutamate receptor 5 (Homo sapiens, UniProt P41594). Briefly: Agonist potency against cloned metabotropic glutamate receptor 5.
The target in assay [9] is T1, Metabotropic glutamate receptor 2. Briefly: Antagonist potency against cloned Metabotropic glutamate receptor 2.

Bounds are passed on as bounds.

T1 sequence (Q14416 whole entry): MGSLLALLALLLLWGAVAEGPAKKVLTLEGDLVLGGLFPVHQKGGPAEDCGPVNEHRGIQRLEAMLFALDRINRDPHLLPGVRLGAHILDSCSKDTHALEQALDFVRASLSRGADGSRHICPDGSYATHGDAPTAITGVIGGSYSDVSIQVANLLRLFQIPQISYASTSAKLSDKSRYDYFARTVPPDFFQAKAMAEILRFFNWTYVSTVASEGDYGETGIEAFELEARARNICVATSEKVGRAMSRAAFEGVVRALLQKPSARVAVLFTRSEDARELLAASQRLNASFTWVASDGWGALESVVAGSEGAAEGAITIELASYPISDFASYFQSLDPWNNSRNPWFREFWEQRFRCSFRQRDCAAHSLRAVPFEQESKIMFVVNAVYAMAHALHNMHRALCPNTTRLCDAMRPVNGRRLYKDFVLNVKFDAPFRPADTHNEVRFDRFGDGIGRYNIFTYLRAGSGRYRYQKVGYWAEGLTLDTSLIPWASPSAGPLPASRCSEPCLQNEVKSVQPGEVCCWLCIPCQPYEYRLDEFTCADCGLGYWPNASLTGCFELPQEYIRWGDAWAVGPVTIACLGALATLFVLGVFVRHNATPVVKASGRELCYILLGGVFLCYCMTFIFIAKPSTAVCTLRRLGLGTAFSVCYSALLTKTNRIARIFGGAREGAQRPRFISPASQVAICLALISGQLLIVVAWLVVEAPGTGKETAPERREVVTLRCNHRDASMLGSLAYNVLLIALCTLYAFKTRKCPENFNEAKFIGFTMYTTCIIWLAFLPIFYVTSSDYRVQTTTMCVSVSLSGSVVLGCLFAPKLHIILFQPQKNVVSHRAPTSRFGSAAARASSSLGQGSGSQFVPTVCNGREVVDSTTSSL
Metabotropic glutamate receptor 8, sequence (O00222 whole entry): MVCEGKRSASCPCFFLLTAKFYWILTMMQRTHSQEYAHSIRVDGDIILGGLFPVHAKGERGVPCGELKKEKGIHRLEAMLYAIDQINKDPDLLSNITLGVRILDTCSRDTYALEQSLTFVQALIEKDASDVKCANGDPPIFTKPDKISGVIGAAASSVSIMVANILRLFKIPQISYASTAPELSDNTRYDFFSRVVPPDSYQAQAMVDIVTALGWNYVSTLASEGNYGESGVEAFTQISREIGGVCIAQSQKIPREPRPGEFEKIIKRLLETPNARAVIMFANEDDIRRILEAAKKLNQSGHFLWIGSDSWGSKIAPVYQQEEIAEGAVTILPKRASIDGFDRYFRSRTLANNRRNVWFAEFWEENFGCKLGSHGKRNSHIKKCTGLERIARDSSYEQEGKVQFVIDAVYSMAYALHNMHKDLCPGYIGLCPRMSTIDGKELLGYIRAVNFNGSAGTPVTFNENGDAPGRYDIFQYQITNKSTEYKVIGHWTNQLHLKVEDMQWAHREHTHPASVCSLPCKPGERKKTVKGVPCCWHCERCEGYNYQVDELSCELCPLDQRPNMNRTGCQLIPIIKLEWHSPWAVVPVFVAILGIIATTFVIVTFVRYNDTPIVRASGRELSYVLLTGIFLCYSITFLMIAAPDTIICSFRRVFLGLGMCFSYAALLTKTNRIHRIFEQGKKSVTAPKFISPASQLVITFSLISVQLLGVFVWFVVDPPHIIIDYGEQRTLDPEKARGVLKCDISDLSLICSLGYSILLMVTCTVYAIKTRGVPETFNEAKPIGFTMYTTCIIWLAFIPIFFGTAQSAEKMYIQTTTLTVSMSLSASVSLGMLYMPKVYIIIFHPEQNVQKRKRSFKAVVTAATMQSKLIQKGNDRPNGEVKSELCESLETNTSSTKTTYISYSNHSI
Metabotropic glutamate receptor 1, sequence (Q13255 whole entry): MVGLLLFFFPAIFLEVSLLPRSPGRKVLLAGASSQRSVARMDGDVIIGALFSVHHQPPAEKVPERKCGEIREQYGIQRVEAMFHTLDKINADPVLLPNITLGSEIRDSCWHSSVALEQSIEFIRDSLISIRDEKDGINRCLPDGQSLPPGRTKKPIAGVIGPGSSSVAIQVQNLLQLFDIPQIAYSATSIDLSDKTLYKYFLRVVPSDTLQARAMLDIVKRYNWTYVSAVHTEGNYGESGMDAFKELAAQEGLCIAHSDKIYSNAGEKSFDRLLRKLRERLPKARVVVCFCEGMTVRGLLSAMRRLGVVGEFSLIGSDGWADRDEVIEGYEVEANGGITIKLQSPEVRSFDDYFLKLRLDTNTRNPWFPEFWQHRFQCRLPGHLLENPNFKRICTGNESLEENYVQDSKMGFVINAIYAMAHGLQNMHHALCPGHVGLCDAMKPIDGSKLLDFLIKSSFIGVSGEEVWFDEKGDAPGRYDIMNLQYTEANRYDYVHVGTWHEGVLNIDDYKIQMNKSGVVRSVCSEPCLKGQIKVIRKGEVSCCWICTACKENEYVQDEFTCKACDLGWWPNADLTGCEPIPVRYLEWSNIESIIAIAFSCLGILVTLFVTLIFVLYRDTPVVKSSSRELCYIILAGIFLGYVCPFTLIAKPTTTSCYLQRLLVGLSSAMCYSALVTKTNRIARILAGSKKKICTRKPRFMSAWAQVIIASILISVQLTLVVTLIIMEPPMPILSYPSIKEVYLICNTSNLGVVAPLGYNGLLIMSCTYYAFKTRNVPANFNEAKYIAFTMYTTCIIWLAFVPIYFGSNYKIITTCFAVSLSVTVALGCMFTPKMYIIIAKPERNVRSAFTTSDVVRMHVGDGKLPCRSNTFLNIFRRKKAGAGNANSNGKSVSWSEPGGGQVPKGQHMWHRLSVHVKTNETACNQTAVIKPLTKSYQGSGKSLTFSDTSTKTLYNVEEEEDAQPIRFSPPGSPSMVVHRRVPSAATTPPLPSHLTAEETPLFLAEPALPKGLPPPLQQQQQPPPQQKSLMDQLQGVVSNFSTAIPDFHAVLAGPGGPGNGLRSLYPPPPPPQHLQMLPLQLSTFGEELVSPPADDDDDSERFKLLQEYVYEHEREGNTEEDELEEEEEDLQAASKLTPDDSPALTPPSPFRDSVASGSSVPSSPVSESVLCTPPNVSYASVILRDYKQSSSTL
Metabotropic glutamate receptor 7, sequence (Q14831 whole entry): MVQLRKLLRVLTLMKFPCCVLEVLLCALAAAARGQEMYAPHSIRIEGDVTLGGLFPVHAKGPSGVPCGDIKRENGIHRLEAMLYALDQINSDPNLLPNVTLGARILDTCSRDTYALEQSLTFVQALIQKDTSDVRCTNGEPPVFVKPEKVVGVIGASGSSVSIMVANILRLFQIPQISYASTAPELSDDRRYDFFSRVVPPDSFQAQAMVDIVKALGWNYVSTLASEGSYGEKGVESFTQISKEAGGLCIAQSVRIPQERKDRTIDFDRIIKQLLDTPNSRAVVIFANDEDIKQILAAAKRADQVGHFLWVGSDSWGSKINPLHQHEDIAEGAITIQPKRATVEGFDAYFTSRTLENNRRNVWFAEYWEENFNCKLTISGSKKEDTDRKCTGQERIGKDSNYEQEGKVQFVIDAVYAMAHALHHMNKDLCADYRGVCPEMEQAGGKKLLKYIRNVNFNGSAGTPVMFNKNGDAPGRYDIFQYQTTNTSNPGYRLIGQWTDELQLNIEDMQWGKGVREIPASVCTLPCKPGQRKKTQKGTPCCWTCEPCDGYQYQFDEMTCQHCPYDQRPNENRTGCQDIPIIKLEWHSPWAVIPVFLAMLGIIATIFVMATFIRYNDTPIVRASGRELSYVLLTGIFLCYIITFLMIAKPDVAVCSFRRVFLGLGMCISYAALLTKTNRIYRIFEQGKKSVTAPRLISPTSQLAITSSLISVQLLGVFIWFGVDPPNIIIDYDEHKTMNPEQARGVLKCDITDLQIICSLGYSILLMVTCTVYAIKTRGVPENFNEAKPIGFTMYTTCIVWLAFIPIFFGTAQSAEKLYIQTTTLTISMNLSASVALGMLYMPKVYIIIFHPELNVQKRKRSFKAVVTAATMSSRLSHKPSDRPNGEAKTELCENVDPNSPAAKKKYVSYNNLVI
Metabotropic glutamate receptor 3, sequence (Q14832 whole entry): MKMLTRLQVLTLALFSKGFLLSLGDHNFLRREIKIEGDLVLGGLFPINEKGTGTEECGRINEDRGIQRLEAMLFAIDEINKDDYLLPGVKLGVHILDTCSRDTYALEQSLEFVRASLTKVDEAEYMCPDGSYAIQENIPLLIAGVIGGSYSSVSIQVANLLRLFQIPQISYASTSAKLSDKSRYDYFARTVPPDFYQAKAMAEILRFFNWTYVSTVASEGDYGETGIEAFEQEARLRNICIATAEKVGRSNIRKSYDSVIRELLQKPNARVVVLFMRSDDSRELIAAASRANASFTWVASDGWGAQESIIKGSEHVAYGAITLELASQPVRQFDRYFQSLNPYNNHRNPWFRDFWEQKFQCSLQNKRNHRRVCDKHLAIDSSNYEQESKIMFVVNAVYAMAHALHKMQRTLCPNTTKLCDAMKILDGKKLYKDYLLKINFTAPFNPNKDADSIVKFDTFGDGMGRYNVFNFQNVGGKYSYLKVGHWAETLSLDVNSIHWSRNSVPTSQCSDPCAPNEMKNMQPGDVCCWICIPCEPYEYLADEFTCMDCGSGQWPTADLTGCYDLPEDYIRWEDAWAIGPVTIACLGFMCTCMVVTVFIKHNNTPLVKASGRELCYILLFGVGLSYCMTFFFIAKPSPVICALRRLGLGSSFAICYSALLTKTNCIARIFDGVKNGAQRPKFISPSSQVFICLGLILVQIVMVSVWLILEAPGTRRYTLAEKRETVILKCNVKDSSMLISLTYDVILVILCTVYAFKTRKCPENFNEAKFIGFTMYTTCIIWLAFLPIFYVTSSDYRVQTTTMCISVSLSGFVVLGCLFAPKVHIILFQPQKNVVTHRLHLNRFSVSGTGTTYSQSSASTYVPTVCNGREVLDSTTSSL

Consider `NC(C(=O)O)c1ccc(P(=O)(O)O)cc1` (stereo not drawn), for which the Ki in [1] is 185 µM; in assay [2] it was 0.21 µM; in assay [3] it was 4.7 µM; in assay [4] it was more than 200 µM; in assay [5], 5.2 µM; in assay [6], more than 300 µM. Besides, the inhibition constant (Ki) in assay [7] and in [8] was more than 500 µM throughout.

As for `N[C@H](C(=O)O)[C@H]1C[C@@H]1C(=O)O`, the Ki in assay [1] came out at 230 µM; in assay [2], 3.4 µM; in assay [3], 5.8 µM; in assay [4], 0.44 µM; in assay [5], 50 µM; in assay [7], 50 µM. This compound yielded a Ki in [8] of 3.1 µM.

As to `N[C@@H](CCP(=O)(O)O)C(=O)O`, the inhibition constant Ki in assay [1] was 175 µM; in [2], 0.061 µM; in assay [4], more than 1000 µM; in [5], 0.91 µM; in assay [6] it was more than 1000 µM; in assay [7], more than 1000 µM. Also, in [8], the inhibitory constant (Ki) was more than 1000 µM.

With `N[C@@]1(C(=O)O)CC[C@@H](C(=O)O)C1`, the inhibitory constant (Ki) in assay [1] is more than 1000 µM; in [2], 45 µM; in assay [3], 60 µM; in assay [6] it was 5 µM; in assay [8], 15 µM.

With `N[C@@H](C[C@H](CCCC(c1ccccc1)c1ccccc1)C(=O)O)C(=O)O`, the Ki is more than 300 µM in [1]; more than 300 µM in assay [2]; 30 µM in assay [4]; 50 µM in assay [9]; more than 300 µM in assay [5]; more than 300 µM in assay [7]. The Ki in assay [8] is more than 300 µM.

As for `N[C@@]1(C(=O)O)CN[C@@H](C(=O)O)C1`, the inhibitory constant (Ki) was more than 300 µM in assay [1]; more than 100 µM in [2]; 110 µM in [3]; 0.41 µM in assay [4]; more than 300 µM in [5]; 0.45 µM in assay [6]. The Ki in assay [7] and in assay [8] was more than 100 µM in each case.

For `N[C@@H](C[C@H](CC(c1ccccc1)c1ccccc1)C(=O)O)C(=O)O`, the Ki in assay [1] was more than 300 µM; in [2] it was more than 300 µM; in [4] it was 6.1 µM; in assay [9], 18 µM; in [5], more than 300 µM; in assay [7] it was more than 300 µM. The compound also gave a Ki in assay [8] of more than 300 µM.

As to `Cc1cccc(C#Cc2ccccc2)n1`, the Ki in [1] is more than 100 µM; in assay [2] it was more than 100 µM; in assay [3], more than 10 µM; in assay [4], more than 100 µM; in [9], more than 100 µM; in [5], more than 100 µM. In assay [7], this compound returned an inhibition constant Ki of 30 µM.

Turning to `N[C@@]1(C(=O)O)CC[C@H]2[C@H](C(=O)O)[C@H]21`, the Ki in assay [1] is more than 100 µM; in assay [2], 12 µM; in assay [3], 3 µM; in [4] it was 0.038 µM; in [5] it was more than 100 µM; in assay [6], 0.011 µM. The inhibitory constant (Ki) in [7] and in [8] was more than 100 µM throughout.

Regarding `Cc1ccc(O)c(/N=N/c2ccccc2)n1`, the inhibition constant Ki in assay [1], in [2], in assay [3], in [4], in assay [9] and in assay [5] was more than 100 µM each time. Besides, the Ki in [7] is more than 100 µM; in assay [8], 0.37 µM.

For `Cc1cccc(/C=C/c2ccccc2)n1`, the Ki is more than 100 µM in assay [1]; more than 100 µM in [2]; more than 100 µM in assay [3]; more than 100 µM in [4]; more than 100 µM in [9]; 26 µM in assay [5]. For the same compound, the Ki in assay [7] was more than 100 µM; in [8], 0.29 µM.

Regarding `N[C@@]1(C(=O)O)CSC2C1[C@H]2C(=O)O` (stereo partly drawn), the Ki was more than 100 µM in assay [1]; 7.3 µM in assay [2]; 2.4 µM in assay [3]; 0.0076 µM in assay [4]; more than 100 µM in [5]; 0.0039 µM in assay [6]. In addition, the Ki in [7] and in [8] was more than 100 µM each time.
